Data reported in patent US11667621B2, “Antiestrogen compounds” (STEVENS INSTITUTE OF TECHNOLOGY, priority 2018, dated 2023).
Where a chain is given by its changes, count along the chain named. pIC50: −log10 of the molar value.

Assays:
Format in all cases: cell-based
[1] = target: T1, HA-ERα D538G (Homo sapiens, UniProt P03372, D538G); assay: Luciferase assay, overexpressed ER (3×-ERE-TATA-Luciferase reporter); conditions: compound concentration 1 μM, 24 hours
T1 construct: HA; expressed in transfected cells
T1 sequence (P03372 1-595 D538G): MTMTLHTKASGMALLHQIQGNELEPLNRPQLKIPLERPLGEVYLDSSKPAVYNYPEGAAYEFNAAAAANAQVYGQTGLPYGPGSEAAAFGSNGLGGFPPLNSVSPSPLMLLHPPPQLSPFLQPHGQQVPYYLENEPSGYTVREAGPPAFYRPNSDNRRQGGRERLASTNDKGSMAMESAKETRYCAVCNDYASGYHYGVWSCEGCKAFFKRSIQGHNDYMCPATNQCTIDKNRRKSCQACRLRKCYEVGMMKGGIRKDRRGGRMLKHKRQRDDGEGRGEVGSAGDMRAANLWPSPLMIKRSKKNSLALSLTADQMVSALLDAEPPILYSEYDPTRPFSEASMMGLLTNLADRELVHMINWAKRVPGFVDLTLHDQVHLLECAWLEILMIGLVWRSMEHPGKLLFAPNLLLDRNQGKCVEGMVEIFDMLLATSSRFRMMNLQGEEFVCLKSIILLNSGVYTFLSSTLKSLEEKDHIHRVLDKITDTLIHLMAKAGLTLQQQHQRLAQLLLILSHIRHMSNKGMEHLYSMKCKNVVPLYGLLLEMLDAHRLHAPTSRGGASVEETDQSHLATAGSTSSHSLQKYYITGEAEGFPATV
Method: (§1) Luciferase assays were performed to determine the efficacy of the example compounds at inhibiting ER or its mutants' ability to activate transcription of genes.
(§2) Cells were plated at a density of 0.15×10^6 per well of 24 well plates one day prior to transfection. Cells were transfected with 125 ng (per well) of HA-ERα wild type or mutants, 315 ng (per well) of 3×-ERE-TATA-Luciferase reporter and 50 ng (per well) of pRL-TK Renilla Luciferase plasmid, using Xtremegene (Roche). The cells were treated with the various compounds or Fulvestrant at the indicated doses a day after transfection for 24 hours and luciferase activities were determined using the Dual-Luciferase® Reporter Assay System (Promega) according to manufacturer's instructions. Luciferase bioluminescence measurements were performed with the Veritas™ Microplate Luminometer (Promega). All experiments were conducted in triplicate and the Firefly luciferase activity was normalized with the Renilla luciferase activity of each sample.

[2] = target: T2, HA-ERα wild type (Homo sapiens, UniProt P03372); assay: as above; conditions: compound concentration 1 μM, 24 hours; read-out: Overexpressed ER (% Inhibition) WT
T2 construct: HA; expressed in transfected cells
T2 sequence (P03372 1-595): T1 sequence (P03372 1-595 D538G) with G538D
Method: as §1, §2

[3] = target: T3, HA-ERα Y537S (Homo sapiens, UniProt P03372, Y537S); assay: as above; conditions: compound concentration 1 μM, 24 hours
T3 construct: HA; expressed in transfected cells
T3 sequence (P03372 1-595 Y537S): T1 sequence (P03372 1-595 D538G) with Y537S, G538D
Method: as §1, §2

[4] = system: MCF7; assay: Luciferase assay in MCF7; parameters: concentration or dose not given beside the values
Method: as §1, §2

[5] = Cell proliferation assay (WST-1), 6-day exposure; conditions: 144 h, read-out: Antiproliferation IC50
Method: Cell proliferation assay: WST-1 assay (Roche, Basel, Switzerland) was used to quantify cell viability after a 6-day exposure to compounds, as described in Gong et al. Mol. Cell. Endocrinol. 2016, 437, 190-200. Absorbance was measured at 450 nm using a VICTOR X5 PerkinElmer 2030 Multilabel Plate Reader, and cell proliferation values represent signal from compound-treated samples relative to vehicle-treated controls. All assays were performed in triplicate, and the values shown are the average SD of 2-3 independent experiments.

| Compound | inhibition at 1 µM [1] [%] | inhibition at 1 µM [2] [%] | inhibition at 1 µM [3] [%] | MCF7 (% Inhibition) [4] [%] | pIC50 [5] |
| --- | --- | --- | --- | --- | --- |
| CC(C)(C)OC(=O)N[C@@H](Cc1c[nH]c2ccccc12)C(=O)NCCCCOc1ccc(C(=C2C3CC4CC(C3)CC2C4)c2ccc(O)cc2)cc1 [Example 1, (S)-tert-Butyl (1-((4-(4-(adamantan-2-ylidene(4-hydroxyphenyl)methyl)-phenoxy)butyl)amino)-3-(1H-indol-3-yl)-1-oxopropan-2-yl)carbamate] | 84 | 71 | 62 | 71 | 7.80 |
| O=C(NCCCCOc1ccc(C(=C2C3CC4CC(C3)CC2C4)c2ccc(O)cc2)cc1)C1CCC1 [Example 10, N-(4-(4-(Adamantan-2-ylidene(4-hydroxyphenyl)methyl)phenoxy)butyl)-cyclobutanecarboxamide] | 89 | 84 | 11 | 66 | 8.52 |
| O=C(NCCCCOc1ccc(C(=C2C3CC4CC(C3)CC2C4)c2ccc(O)cc2)cc1)C1CCCCC1 [Example 11, N-(4-(4-(Adamantan-2-ylidene(4-hydroxyphenyl)methyl)phenoxy)butyl)-cyclohexanecarboxamide] | 91 | 89 | 86 | 84 | 9.22 |
| O=C(NCCCCOc1ccc(C(=C2C3CC4CC(C3)CC2C4)c2ccc(O)cc2)cc1)C1CCCCCC1 [Example 12, N-(4-(4-(Adamantan-2-ylidene(4-hydroxyphenyl)methyl)phenoxy)butyl)-cycloheptanecarboxamide] | 92 | 90 | 58 | 82 | 8.30 |
| O=C(NCCCCOc1ccc(C(=C2C3CC4CC(C3)CC2C4)c2ccc(O)cc2)cc1)C1CCC(F)(F)CC1 [Example 13, N-(4-(4-(Adamantan-2-ylidene(4-hydroxyphenyl)methyl)phenoxy)butyl)-4,4-difluorocyclohexanecarboxamide] | 92 | 90 | 46 | 80 | 8.40 |

Second part, led by results:

| inhibition at 1 µM [1] [%] | inhibition at 1 µM [2] [%] | inhibition at 1 µM [3] [%] | Compound | MCF7 (% Inhibition) [4] [%] | pIC50 [5] |
| --- | --- | --- | --- | --- | --- |
| 87 | 84 | 62 | O=C(NCCCCOc1ccc(C(=C2C3CC4CC(C3)CC2C4)c2ccc(O)cc2)cc1)C12CC3CC(CC(C3)C1)C2 [Example 6, N-(4-(4-(Adamantan-2-ylidene(4-hydroxyphenyl)methyl)phenoxy)-butyl)adamantane-1-carboxamide] | 70 | 7.89 |
| 83 | 83 | 46 | CC12CC3CC(C)(C1)CC(C(=O)NCCCCOc1ccc(C(=C4C5CC6CC(C5)CC4C6)c4ccc(O)cc4)cc1)(C3)C2 [Example 7, N-(4-(4-(Adamantan-2-ylidene(4-hydroxyphenyl)methyl)phenoxy)butyl)-3,5-dimethyladamantane-1-carboxamide] | 53 | 8.30 |
| 89 | 83 | 31 | O=C(NCCCCOc1ccc(C(=C2C3CC4CC(C3)CC2C4)c2ccc(O)cc2)cc1)C12CC3CC(CC1C3)C2 [Example 8, N-(4-(4-((Adamantan-2-ylidene)(4-hydroxyphenyl)methyl)phenoxy)butyl)-hexahydro-2,5-methanopentalene-3a(1H)-carboxamide] | 77 | 7.92 |
| 92 | 88 | 33 | O=C(NCCCCOc1ccc(C(=C2C3CC4CC(C3)CC2C4)c2ccc(O)cc2)cc1)[C@H]1C[C@@H]2C=C[C@H]1C2 [Example 9, (1R, 2S, 4R)—N-(4-(4-(Adamantan-2-ylidene(4-hydroxyphenyl)methyl)phenoxy)-butyl)bicyclo[2.2.1]hept-5-ene-2-carboxamide] | 73 | 8.05 |
| 88 | 81 | 26 | O=C(NCCCCOc1ccc(C(=C2C3CC4CC(C3)CC2C4)c2ccc(O)cc2)cc1)[C@H]1CC[C@H](C(F)(F)F)CC1 [Example 14, (trans)-N-(4-(4-(Adamantan-2-ylidene(4-hydroxyphenyl)methyl)phenoxy)-butyl)-4-(trifluoromethyl)cyclohexanecarboxamide] | 72 | 9.30 |
